In patent publication US20130296455A1, “NOVEL COMPOUND, DYE AND COLORED PHOTOSENSITIVE COMPOSITION” (ADEKA CORPORATION, priority 2011, published 2013):

Columns and labels:
Assay type in all cases: physicochemical
[1] = Evaluation of absorption wavelength property in CHCl3 solution; conditions: maximum absorption wavelength in CHCl3 solution
Protocol: (§1) Bis(4-formylphenyl)phenylamine (0.90 g, 3 mmol), ethyl cyanoacetate (0.75 g, 6.6 mmol) and ethanol (1.26 g) were added to a reaction container and heated to 50° C. under stirring. Triethylamine (0.06 g, 0.6 mmol) was then added dropwise, a reaction was conducted at 50° C. for 2 hours, and the reactant was cooled to room temperature. The reaction solution was subjected to liquid separation with ethyl acetate/water, the organic layer was dried under a reduced pressure, and the precipitated solid was washed with hexane to thereby give 1.13 g (yield 95.2%) of a yellow powder. That the obtained yellow powder was the intended substance was confirmed by ^1H-NMR and IR. Furthermore, the solubility and absorption wavelength properties (absorption wavelength λmax and absorption coefficient ∈) of compound No. 1 were measured. PGMEA was added dropwise to 0.1 g of the compound under stirring, and the solubility was defined as the concentration at the time when PGMEA had completely dissolved the compound. Furthermore, the absorption wavelength properties were measured in a CHCl3 solution.
The maximum absorption wavelengths of Compounds Nos. 1, 2, 5 and 46 and Comparative Compounds Nos. 1 and 2 obtained above were each evaluated in a CHCl3 solution. The results are shown in [Table 5].

[2] = Evaluation of heat-resistance by TG-DTA
Protocol: Compounds Nos. 1, 2, 5 and 46 and Comparative Compounds Nos. 1 and 2 obtained above were analyzed by TG-DTA to thereby measure the melting points and temperatures at 10% weight loss. The results are shown in [Table 4].

[3] = Evaluation of heat-resistance by calcination of coating of colored alkali-developable photosensitive composition; conditions: for relative intensity 230° C., 30 min: absorbance of coating at λmax after calcination 230° C.×30 min, before calcination (after exposure to light) = 100; for λmax: coating of colored alkali-developable photosensitive composition on glass substrate
Protocol: No. 3 obtained above, and comparative colored alkali-developable photosensitive composition No. 1 were each applied to a glass substrate under conditions of 410 rpm×7 sec, and dried on a hot plate (90° C., 90 sec). The obtained coating was exposed to light by a ultrahigh pressure mercury lamp (150 mJ/cm^2). The coating after the exposure to light was calcined under conditions of 230° C.×30 min. The absorbance of the coating before the calcination (after the exposure to light) and the absorbance of the coating after the calcination at the maximum absorption wavelength (λmax) of the compound (dye) as used were measured, and considering the absorption of the coating before the calcination (after the exposure to light) as 100, the absorbance of the coating after the calcination closer to 100 was evaluated to give higher heat-resistance. The results are shown in [Table 6].

Solubility in PGMEA = conditions: PGMEA added dropwise to 0.1 g of compound; concentration when completely dissolved
Protocol: as §1

λmax [1] [nm] | temperatures at 10% weight loss [2] [°C] | relative intensity 230° C., 30 min [3] | λmax [3] [nm] | solubility (Solubility in PGMEA) [wt %] | Compound
430 | 259 | 12.5 | 430 | – | CCOC(=O)/C(C#N)=C/c1ccc(N(CC)CC)cc1 [Comparative Compound No. 1, reference compound]
432 | 252 | – | – | – | CCOCCOC(=O)/C(C#N)=C/c1ccc(N(CC)CC)cc1 [Comparative Compound No. 2, reference compound]
460 | 355 | 94.9 | 458 | 4.6 | CCOC(=O)/C(C#N)=C/c1ccc(N(c2ccccc2)c2ccc(/C=C(\C#N)C(=O)OCC)cc2)cc1 [Compound No. 1]
452 | 370 | 98.5 | 452 | 3.5 | CCOC(=O)/C(C#N)=C/c1ccc(N(c2ccc(/C=C(\C#N)C(=O)OCC)cc2)c2ccc(/C=C(\C#N)C(=O)OCC)cc2)cc1 [Compound No. 2]
423 | 345 | – | – | 0.1 | CCOC(=O)/C(C#N)=C/c1ccc(N2CCN(c3ccc(/C=C(\C#N)C(=O)OCC)cc3)CC2)cc1 [Compound No. 5]
430 | 346 | 99.9 | 436 | 0.5 | CCOC(=O)/C(C#N)=C/c1ccc(N(CC)CCCCCCN(CC)c2ccc(/C=C(\C#N)C(=O)OCC)cc2)cc1 [Compound No. 46]
